The text below walks through data of patent US12187705B2, “Heteroaryl-triazole and heteroaryl-tetrazole compounds as pesticides” (Bayer Aktiengesellschaft, priority 2018, dated 2025).

Assay type in all cases: in vivo
The test system of one assay is Spodoptera frugiperda. The experiment in a line: Spodoptera frugiperda spray test. The settings on record: in Zea mays, 168 h. The procedure: Spodoptera frugiperda—Spray Test
(§1) To produce a suitable preparation of active compound, 1 part by weight of active compound is mixed with the stated amount of solvents and is diluted with water, containing an emulsifier concentration of 1000 ppm, to the desired concentration. Further test concentrations are prepared by dilution with emulsifier containing water.
Maize (Zea mays) leaf sections are sprayed with a preparation of the active ingredient of the desired concentration. Once dry, the leaf sections are infested with fall armyworm larvae (Spodoptera frugiperda).
After 7 days mortality in % is determined. 100% means all caterpillars have been killed and 0% means none of the caterpillars have been killed.

Another assay deals with Diabrotica balteata. Briefly: Diabrotica balteata spray test. As to conditions: Diabrotica balteata, 168 h; 160 μg/well, wheat seeds, after 7 days; read-out: efficacy (seedlings grown). The procedure: Diabrotica balteata—Spray Test
(§2) To produce a suitable preparation of active compound, 1 part by weight of active compound is mixed with the stated amount of solvent, and the concentrate is diluted with water, containing an emulsifier concentration of 1000 ppm, to the desired concentration. Further test concentrations are prepared by dilution with emulsifier containing water.
Soaked wheat seeds (Triticum aestivum) are placed in a multiple well plate filled with agar and some water and are incubated for 1 day to germinate (5 seeds per well). The germinated wheat seeds are sprayed with a test solution containing the desired concentration of the active ingredient. Afterwards each unit is infected with 10-20 larvae of the banded cucumber beetle (Diabrotica balteata).
After 7 days efficacy in % is determined. 100% means all the seedlings have grown up like in the untreated, uninfected control; 0% means none of the seedlings have grown.

The test system of another assay is Myzus persicae. The experiment in a line: Myzus persicae oral test. As to conditions: 120 h. The procedure:
To produce a suitable preparation of active compound, 1 part by weight of active compound is mixed with the stated amount of solvent, and the concentrate is diluted with water to the desired concentration.
50 μl compound solution is filled in microtiter plates and 150 μl IPL41 insect medium (33%+15% sugar) is added to obtain a total volume of 200 μl per well. Afterwards the plates are sealed with parafilm through which a mixed population of the green peach aphid (Myzus persicae) can suck on the compound preparation.
After 5 days mortality in % is determined. 100% means all aphids have been killed and 0% means none of the aphids have been killed.

The test system of another assay is Nilaparvata lugens. Briefly: Nilaparvata lugens spray test. The settings on record: Nilaparvata lugens, in Oryza sativa, 96 h. The procedure: Nilaparvata lugens—Spray Test
as §1
Rice plants (Oryza sativa) are sprayed with a preparation of the active ingredient of the desired concentration and the plants are infested with the brown planthopper (Nilaparvata lugens).
After 4 days mortality in % is determined. 100% means all planthoppers have been killed and 0% means none of the planthoppers have been killed.

The subject of the next assay is Nezara viridula. Briefly: Nezara viridula spray test. The settings on record: in Hordeum vulgare, 96 h. The procedure:
Nezara viridula—Spray Test
as §2
Barley plants (Hordeum vulgare) infested with larvae of the southern green stink bug (Nezara viridula) are sprayed with a test solution containing the desired concentration of the active ingredient.
After 4 days mortality in % is determined. 100% means all the stink bugs have been killed; 0% means none of the stink bugs have been killed.

The subject of assay [1] is Aedes aegypti strain MONHEIM. Briefly: Aedes aegypti test (AEDSAE surface treatment & contact assay). The settings on record: 24 hours after contact, read-out: efficacy (mortality); for mortality at 4 mg/m2: surface concentration 4 mg/m^2, 30 minutes exposure; for mortality at 20 mg/m2: surface concentration 20 mg/m^2, 30 minutes exposure. The procedure:
Aedes aegypti Test (AEDSAE Surface Treatment & Contact Assay)
(§3) Solvent: Aceton+2000 ppm rapeseed oil methyl ester (RME)
In order to produce a sufficient, active ingredient containing solution it is necessary to solve the test-compound in the solvent-mix (Acetone at 2 mg/ml/RME 2000 ppm). This solution is pipetted onto a glazed tile and after evaporation of the Acetone, adult mosquitoes of the species Aedes aegypti strain MONHEIM are placed onto the dried surface. The exposure time is 30 minutes.
(§4) Mortality in percent (%) is determined 24 hours after contact to the treated surface. 100% mortality means that all test-insects are dead, whereas 0% means that not a single insect died.

Assay [2] has as its system Ctenocephalides felis. The experiment in a line: Ctenocephalides felis in-vitro contact test adult cat flea. As to conditions: Ctenocephalides felis; 5 μg/cm^2 (=500 g/ha), after 48 hours; read-out: efficacy (fleas dead or moribund). The procedure:
Ctenocephalides felis—In-Vitro Contact Test Adult Cat Flea
9 mg compound is solved in 1 ml acetone and diluted with acetone to the desired concentration. 250 μl of the test solution is filled in 25 ml glass test tubes and homogeneously distributed on the inner walls by rotation and tilting on a shaking device (2 h at 30 rpm). With a compound concentration of 900 ppm, an inner surface of 44.7 cm^2 and a homogeneous distribution, a dose of 5 μg/cm^2 is achieved.
After the solvent has evaporated, each test tube is filled with 5-10 adult cat fleas (Ctenocephalides felis), closed with a perforated lid and incubated in a lying position at room temperature and relative humidity. After 48 hours efficacy is determined. The fleas are patted on the ground of the tubes and are incubated on a heating plate at 45-50° C. for at most 5 minutes. Immotile or uncoordinated moving fleas, which are not able to escape the heat by climbing upwards, are marked as dead or moribund.
An efficacy of 100% means all fleas are dead or moribund; 0% means no fleas are dead or moribund.

For assay [3], the system named is Culex quinquefasciatus strain P00. Briefly: Culex quinquefasciatus test (CULXFA surface treatment & contact assay). As to conditions: 24 hours after contact, read-out: efficacy (mortality); for mortality at 4 mg/m2: surface concentration 4 mg/m^2, 30 minutes exposure; for mortality at 20 mg/m2: surface concentration 20 mg/m^2, 30 minutes exposure. On the procedure: Culex quinquefasciatus Test (CULXFA Surface Treatment & Contact Assay)
as §3
In order to produce a sufficient, active ingredient containing solution it is necessary to solve the test-compound in the solvent-mix (Acetone at 2 mg/ml/RME 2000 ppm). This solution is pipetted onto a glazed tile and after evaporation of the Acetone, adult mosquitoes of the species Culex quinquefasciatus strain P00 are placed onto the dried surface. The exposure time is 30 minutes.
as §4

The test system of assay [4] is Ctenocephalides felis. Briefly: Ctenocephalides felis oral test. As to conditions: Ctenocephalides felis, in Bos taurus, po, 48 h. On the procedure: Ctenocephalides felis—Oral Test
(§5) Solvent: dimethyl sulfoxide
To produce a suitable preparation of active compound, 10 mg of active compound are dissolved in 0.5 ml solvent, and the concentrate is diluted with cattle blood to the desired concentration.
Approximately 20 adult unfed cat fleas (Ctenocephalides felis) are placed in flea chambers. The blood chamber, sealed with parafilm on the bottom, are filled with cattle blood supplied with compound solution and placed on the gauze covered top of the flea chamber, so that the fleas are able to suck the blood. The blood chamber is heated to 37° C. whereas the flea chamber is kept at room temperature.
After 2 days mortality in % is determined. 100% means all the fleas have been killed; 0% means none of the fleas have been killed.

The subject of the next assay is Boophilus microplus. Briefly: Boophilus microplus injection test. The settings on record: Rhipicephalus microplus, 168 h, 20 μg/animal, egg deposition after 7 days, read-out: efficacy (infertile eggs). The procedure:
Boophilus microplus—Injection Test
as §5
To produce a suitable preparation of active compound, 10 mg of active compound are dissolved in 0.5 ml solvent, and the concentrate is diluted with solvent to the desired concentration.
Five adult engorged female ticks (Boophilus microplus) are injected with 1 μl compound solution into the abdomen. The ticks are transferred into replica plates and incubated in a climate chamber.
After 7 days egg deposition of fertile eggs is monitored. Eggs where fertility is not visible are stored in a climate chamber till hatching after about 42 days. An efficacy of 100% means all eggs are infertile; 0% means all eggs are fertile.

By mortality is commonly meant the share of the test organisms that died. In the assay with Spodoptera frugiperda, `C[C@@H](NC(=O)c1cc(-c2ccc(F)cc2)cc(C(F)(F)F)c1)c1ncnn1-c1ccc(C#N)cn1` [Example I-123] gave a mortality at 500 g/ha of 100%. In the assay on Diabrotica balteata, the pest or weed control at 160 µg/disc, 160 µg/well was determined as 100%.

For `C[C@H](NC(=O)c1cc(Cl)cc(S(=O)(=O)C(F)(F)F)c1)c1ncnn1-c1ncccn1` [Example I-033, 3-chloro-N-{(1S)-1-[1-(pyrimidin-2-yl)-1H-1,2,4-triazol-5-yl]ethyl}-5-[(trifluoromethyl)sulfonyl]benzamide], the mortality at 500 g/ha in the assay on Spodoptera frugiperda, with Nilaparvata lugens and in the assay on Nezara viridula was 100% in each case. Moreover, the mortality at 4 ppm in the assay with Myzus persicae turned out to be 100%. The pest or weed control at 160 µg/disc, 160 µg/well in the assay on Diabrotica balteata turned out to be 100%.

For `C[C@@H](NC(=O)c1cc(Cl)cc(S(C)(=O)=O)c1)c1ncnn1-c1ccc(C(F)(F)F)cn1` [Example I-089], the mortality at 500 g/ha in the assay on Spodoptera frugiperda and with Nezara viridula was 100% in each case. The mortality at 4 mg/m2 in assay [1] and in assay [3] was 80 to 100% throughout. Moreover, the mortality at 20 mg/m2 in assay [1] lay in the range of 90 to 100%; in [3], 80 to 100%. Further, the pest or weed control at 160 µg/disc, 160 µg/well with Diabrotica balteata worked out at 100%. The pest or weed control at 5 µg/cm2, 5 µg/cm2 in the assay with Ctenocephalides felis [2] is 100%. In the assay with Ctenocephalides felis [4], this molecule came in with a mortality at 100 ppm of 100%.

The molecule `C[C@@H](NC(=O)c1cc(Cl)cc(S(=O)(=O)C(F)(F)F)c1)c1ncnn1-c1nccs1` [Example I-077] registered a mortality at 500 g/ha in the assay with Spodoptera frugiperda of 100%. Further, the mortality at 20 mg/m2 in assay [1] lay in the range of 90 to 100%. Also, in the assay with Diabrotica balteata, the pest or weed control at 160 µg/disc, 160 µg/well was determined as 100%. Besides, the pest or weed control at 0.02 mg with Boophilus microplus amounted to 100%. This molecule also registered a mortality at 100 ppm with Ctenocephalides felis [4] of 90%.

For the molecule `CC(c1ncnn1-c1ncccn1)N(CC1CC1)C(=O)c1c(F)cccc1F` (stereo not drawn) [Example I-018], in the assay on Nilaparvata lugens, the mortality at 500 g/ha is 100%.

For the molecule `C[C@H](NC(=O)c1cc(Cl)cc(S(C)(=O)=O)c1)c1ncnn1-c1ccc(OC(F)F)cn1` [Example I-063], the mortality at 500 g/ha in the assay with Spodoptera frugiperda and with Nezara viridula was 100% each time. The same molecule registered a mortality at 4 ppm in the assay with Myzus persicae of 100%. The mortality at 4 mg/m2 in [1] and in [3] was 80 to 100% each time. Moreover, the mortality at 20 mg/m2 in assay [1] was 90 to 100%; in assay [3], 80 to 100%. For the same molecule, the pest or weed control at 160 µg/disc, 160 µg/well in the assay with Diabrotica balteata was 100%.

`C[C@H](NC(=O)c1cc(Cl)cc(S(C)(=O)=O)c1)c1ncnn1-c1ccc(SC(F)(F)F)cn1` [Example I-064] had a mortality at 500 g/ha with Spodoptera frugiperda of 100%. Further, the pest or weed control at 160 µg/disc, 160 µg/well in the assay with Diabrotica balteata is 100%.

With `CC(C)S(=O)(=O)c1cc(Cl)cc(C(=O)N[C@@H](C)c2ncnn2-c2ncccn2)c1` [Example I-051, 3-chloro-5-(isopropylsulfonyl)-N-{(1S)-1-[1-(pyrimidin-2-yl)-1H-1,2,4-triazol-5-yl]ethyl}benzamide], the mortality at 500 g/ha in the assay with Spodoptera frugiperda and with Nezara viridula was 100% in each case. Moreover, the mortality at 4 ppm in the assay on Myzus persicae was 100%. Besides, in the assay with Diabrotica balteata, the pest or weed control at 160 µg/disc, 160 µg/well is 100%. Also, in the assay on Boophilus microplus, the pest or weed control at 0.02 mg was found to be 100%. In addition, the pest or weed control at 5 µg/cm2, 5 µg/cm2 in the assay with Ctenocephalides felis [2] came out at 80%. Besides, in the assay with Ctenocephalides felis [4], the mortality at 100 ppm came to 100%.

On to `CC(NC(=O)c1cc(Cl)cc(-n2ccc(C(F)(F)F)n2)c1)c1ncnn1-c1ncccn1` (stereo not drawn) [Example I-094], for which the mortality at 500 g/ha in the assay on Spodoptera frugiperda came to 83%. Besides, the pest or weed control at 160 µg/disc, 160 µg/well in the assay with Diabrotica balteata turned out to be 100%.

For the molecule `COC[C@H](NC(=O)c1cc(Cl)cc(S(C)(=O)=O)c1)c1ncnn1-c1ncccn1` [Example I-059], the mortality at 500 g/ha in the assay with Nilaparvata lugens amounted to 100%. Moreover, the pest or weed control at 5 µg/cm2, 5 µg/cm2 with Ctenocephalides felis [2] was 80%. Besides, in the assay on Ctenocephalides felis [4], the mortality at 100 ppm stood at 100%.

`C[C@@H](NC(=O)c1cncc(-c2ccc(F)cc2)c1)c1ncnn1-c1ncccn1` [Example I-111] returned a mortality at 500 g/ha in the assay with Nilaparvata lugens of 100%.

In the case of `C[C@@H](NC(=O)c1cc(Cl)cc(S(C)(=O)=O)c1)c1nc(C(F)(F)F)nn1-c1ccc(C#N)cn1` [Example I-110], the mortality at 500 g/ha in the assay with Spodoptera frugiperda and in the assay with Nezara viridula was 100% in each case.

Take `C[C@H](NC(=S)c1cc(F)cc(C2CC2)c1)c1ncnn1-c1ccc(C#N)cn1` [Example I-120, N-{(1S)-1-[1-(5-cyanopyridin-2-yl)-1H-1,2,4-triazol-5-yl]ethyl}-3-cyclopropyl-5-fluorobenzenecarbothioamide]: the mortality at 500 g/ha in the assay with Spodoptera frugiperda, with Nilaparvata lugens and in the assay with Nezara viridula was 100% each time. For the same molecule, the pest or weed control at 160 µg/disc, 160 µg/well in the assay with Diabrotica balteata amounted to 100%.

As to `C[C@@H](NC(=O)c1cc(F)cc(C2CC2)c1)c1ncnn1-c1ccc(C#N)cn1` [Example I-113], the mortality at 500 g/ha in the assay with Spodoptera frugiperda came to 100%; with Nezara viridula, 90%. Moreover, the pest or weed control at 160 µg/disc, 160 µg/well with Diabrotica balteata was determined as 100%.
